Source: the NIST ThermoML archive (doi:10.1016/j.jct.2011.10.023)

Details: Liquid, Vibrating tube method

CCCCO [butan-1-ol]
mass density [kg/m3]
Details | 278.15 K | 288.15 K | 298.15 K | 308.15 K | 318.15 K | 328.15 K | 338.15 K | 348.15 K | 358.15 K
100 kPa | 820.9 | 813.5 | 805.8 | 798 | 790.3 | 782.3 | 774 | 765.6 | 756.6
1000 kPa | 821.6 | 814.1 | 806.6 | 798.8 | 791.1 | 783.1 | 774.9 | 766.3 | 757.7
5000 kPa | 824.4 | 817 | 809.6 | 802 | 794.5 | 786.7 | 778.7 | 770.5 | 761.7
10000 kPa | 827.7 | 820.5 | 813.3 | 805.9 | 798.5 | 790.9 | 783.2 | 775.3 | 767
15000 kPa | 830.9 | 823.9 | 816.8 | 809.5 | 802.4 | 795 | 787.4 | 779.8 | 771.7
20000 kPa | 834 | 827.2 | 820.2 | 813 | 805.6 | 798.8 | 791.4 | 784 | 776.2
25000 kPa | 837 | 830.3 | 823.5 | 816.4 | 809.5 | 802.4 | 795.3 | 788 | 780.4
30000 kPa | 839.9 | 833.2 | 826.6 | 819.7 | 812.9 | 806 | 799 | 791.8 | 784.4
35000 kPa | 842.7 | 836.2 | 829.6 | 822.8 | 816.1 | 809.4 | 802.5 | 795.6 | 788.3
40000 kPa | 845.4 | 839 | 832.6 | 825.9 | 819.3 | 812.7 | 805.9 | 799.1 | 792
45000 kPa | 848.1 | 841.7 | 835.4 | 828.8 | 822.4 | 815.8 | 809.2 | 802.5 | 795.5
50000 kPa | 850.7 | 844.4 | 838.2 | 831.7 | 825.3 | 818.9 | 812.4 | 805.8 | 799
55000 kPa | 853.2 | 846.8 | 840.9 | 834.5 | 828.2 | 821.8 | 815.4 | 809 | 802.3
60000 kPa | 855.6 | 849.4 | 843.3 | 837 | 830.9 | 824.6 | 818.4 | 811.9 | 805.3

CCCCCCCCCCO [decan-1-ol]
mass density [kg/m3]
Details | 288.15 K | 298.15 K | 308.15 K | 318.15 K | 328.15 K | 338.15 K | 348.15 K | 358.15 K
100 kPa | 832.3 | 825.5 | 818.7 | 811.9 | 805 | 798 | 790.9 | 783.6
1000 kPa | 832.8 | 826 | 819.3 | 812.5 | 805.7 | 798.7 | 791.6 | 784.3
5000 kPa | 835.2 | 828.5 | 821.9 | 815.3 | 808.5 | 801.7 | 794.8 | 787.6
10000 kPa | 838 | 831.5 | 825 | 818.5 | 811.9 | 805.2 | 798.5 | 791.6
15000 kPa | 840.8 | 834.4 | 828 | 821.7 | 815.2 | 808.7 | 802 | 795.3
20000 kPa | 843.5 | 837.2 | 830.9 | 824.7 | 818.3 | 812 | 805.5 | 798.9
25000 kPa | 846.1 | 839.8 | 833.7 | 827.6 | 821.4 | 815.1 | 808.8 | 802.3
30000 kPa | 848.6 | 842.5 | 836.4 | 830.4 | 824.3 | 818.1 | 811.9 | 805.6
35000 kPa | 851.1 | 845.1 | 839.1 | 833.2 | 827.1 | 821.1 | 815 | 808.8
40000 kPa | 853.5 | 847.6 | 841.7 | 835.8 | 829.9 | 824 | 817.9 | 811.9
45000 kPa | 855.9 | 850 | 844.2 | 838.5 | 832.6 | 826.7 | 820.8 | 814.8
50000 kPa | 858.2 | 852.4 | 846.6 | 841 | 835.2 | 829.4 | 823.6 | 817.7
55000 kPa | 860.4 | 854.7 | 849 | 843.4 | 837.7 | 832.1 | 826.4 | 820.5
60000 kPa | 862.7 | 856.8 | 851.2 | 845.7 | 840.2 | 834.5 | 829 | 822.9
